Legend:
[1] = test system: Prostanoid F receptor family and the Prostanoid E1 receptor family; assay: R-SAT functional assay (Reference Example 2), cited as the method for Example 2; type: cell-based; settings: 23 Days
Description: Without intending to be limited by theory, there are two principal prostaglandin receptor families that control nail growth: the Prostanoid F receptor family and the Prostanoid E1 receptor family. Potential at these receptors in measured in two types of assays-binding assays and functional assays. The functional assay is described herein and the binding assay is above as Reference Example 1.
There are many functional assays available, for example, growth in Swiss 3T3 cells. Preferred is the R-SAT system. R-SAT is a cell-based assay system where genes are transferred to cultured cells. The functional activity of the gene products, or potential drug targets, are then evaluated through signal transduction pathways that lead to cellular growth. The growth signals are reported using marker gene technologies. Thus, effects of drugs on potential drug targets can be efficiently detected as changes in color or fluorescence. R-SAT enables the efficient screening of large compound libraries for identification of new chemistries at given targets, as well as detailed pharmacological testing of compounds at a wide range of targets, as described in MESSIER, T., DORMAN, C. M.; BRAUNEROSBORNE, H.; EUBANKS, D. & BRANN, M. R. (1995) Pharmacol. and Toxicol. 76 308-311, incorporated herein by reference.
was tested according to the method of Reference Example 2.

[2] = target: T1, hFP prostaglandin receptor (Homo sapiens, UniProt P43088); assay: Competition binding assay (Reference Example 1), cited as the method for Example 1
T1 construct: expressed in transfected cells; host or cells: COS 7 cells transiently transfected (pCR 3.1 vector); the summary sentence instead says stably transfected CHO-KI cells
T1 sequence (P43088 whole entry): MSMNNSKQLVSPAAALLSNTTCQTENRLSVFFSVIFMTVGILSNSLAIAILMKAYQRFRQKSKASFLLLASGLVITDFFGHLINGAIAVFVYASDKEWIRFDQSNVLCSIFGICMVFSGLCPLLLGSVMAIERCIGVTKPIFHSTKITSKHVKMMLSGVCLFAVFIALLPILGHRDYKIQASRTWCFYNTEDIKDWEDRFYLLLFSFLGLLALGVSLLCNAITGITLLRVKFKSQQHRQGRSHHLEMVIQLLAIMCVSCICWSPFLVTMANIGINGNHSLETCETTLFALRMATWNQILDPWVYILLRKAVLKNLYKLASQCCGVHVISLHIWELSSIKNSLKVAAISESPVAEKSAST

| SMILES | Average Grades [1] | Average Grades ([2]; 23 Days) | Average Grades ([2]; 25 Days) | Average Grades ([2]; 26 Days) |
| --- | --- | --- | --- | --- |
| COC(=O)CCCCCC[C@@H]1[C@@H](CCC(O)CSc2ccccc2Br)[C@H](O)C[C@@H]1O (stereo partly shown) [Example 2] | 0.1 | – | – | – |
| CC(C)OC(=O)CCCCCC[C@@H]1[C@@H](CCC(O)CSc2ccccc2)[C@H](O)C[C@@H]1O (stereo partly shown) [Example 1] | – | 0.4 | 0.1 | 0.7 |
